Reference: patent publication US8795222B2, “Device and method for treatment of surface infections with nitric oxide” (Pulmonox Technologies Corp., priority 2000, dated 2014)

What was measured:
[1] = system: Staphylococcus aureus; experiment: Full thickness infected wound model, wound bacterial content; format: in vivo, rabbits
Source text: FIG. 9 illustrates wound bacterial content following topical application of 200 ppm gNO in a full thickness infected wound model in rabbits.
In vivo studies in animal models have further shown the beneficial effects of nitric oxide gas. In an animal model, full-thickness cutaneous wounds (Set A: four rabbits with eight 8.0 mm punch biopsies & Set B: 4 rabbits with two 50×15 mm wounds) were made on each side of dorsal midline and infected with equal volume of Staphylococcus aureus suspension on day zero. On day one, treated groups in A and B were respectively exposed to 200 and 400 ppm gNO for total of three days. […] A 24-hour continuous delivery model was used for animals in Set B by design of a specialized wound patch. Control groups were only exposed to medical grade air with corresponding flow rate. Four random sample punch biopsies (8.0 mm) were collected on post wounding days 3 and analyzed for bacterial content. Another four punch biopsies from both wound and normal skin tissue were collected for fibroblast viability analysis and toxic effects of gNO.
(§1) On average well over 10 fold drop (p<0.05) in bacterial content is observed in comparison between control and treated groups.

[2] = Full thickness infected wound model, toxicity, serum NOx and methemoglobin; format: in vivo, rabbits
Source text: In vivo studies in animal models have further shown the beneficial effects of nitric oxide gas. In an animal model, full-thickness cutaneous wounds (Set A: four rabbits with eight 8.0 mm punch biopsies & Set B: 4 rabbits with two 50×15 mm wounds) were made on each side of dorsal midline and infected with equal volume of Staphylococcus aureus suspension on day zero. On day one, treated groups in A and B were respectively exposed to 200 and 400 ppm gNO for total of three days. Set A was exposed for two 4-hour sessions, interrupted by 1-hour of rest, inside a specialized restraining exposure chamber. A 24-hour continuous delivery model was used for animals in Set B by design of a specialized wound patch. Control groups were only exposed to medical grade air with corresponding flow rate. Four random sample punch biopsies (8.0 mm) were collected on post wounding days 3 and analyzed for bacterial content. Another four punch biopsies from both wound and normal skin tissue were collected for fibroblast viability analysis and toxic effects of gNO.
as §1
FIG. 12 indicates the level of methemoglobin (MetHb) in animal's blood following 6 day intermittent exposure to 200 ppm gNO.

[3] = system: collagenase mRNA; experiment: mRNA expression after gNO exposure; format: cell-based; conditions: 200 ppm gNO; 24 hours and 48 hours
Source text: Witte M B, et al, (2002) Nitric oxide enhances […] wound healing in diabetes, Br J. Surg., 89:1594-601. Thus, Applicants believe that NO may upregulate expression of both collagenase (MMP-1) and gelatinase (MMP-2), which may be important in keeping the wound clean from necrotic tissue while not prolonging the inflammatory phase.

[4] = system: fibroblasts grown in a 3D matrix; experiment: Fibroblasts grown in a 3D matrix, migration and proliferation; format: cell-based; conditions: 200 ppm NO for 8 hours per day for 3 days; compared with air or conventional incubator

## [N]=O [gNO, nitric oxide]
[1]; 200 ppm gNO continuously for 72 hours, compared with medical air control
  wound bacterial content: significant bacterial reduction
[1]; 400 ppm gNO, control versus treated, p<0.05
  drop in wound bacterial content: over 10 fold
[2]; 200 ppm gNO intermittently for 6 days
  blood serum NOx (NO2 and NO3) level: None of the samples show an increased level of NOx
[2]; 200 ppm gNO, compared with control
  toxic effect or damage in the skin of treated animals: no toxic effect or damage were observed
[2]; 6 day intermittent exposure to 200 ppm gNO, compared with air control
  blood methemoglobin (MetHb) level: did not show an increase level of MetHB
[3]
  expression of collagenase mRNA: increased
[4]
  migration of fibroblasts: does not appear to affect
  proliferation of fibroblasts: does not appear to interfere
